Results as given in patent US20190321345A1, “GLUT4 Selective Inhibitors for Cancer Therapy” (Emory University, priority 2016, published 2019).
pEC50, pIC50: −log10 of the molar value.

Columns and labels:
Type in all cases: cell-based
GLUT8 = molecular target: T1, GLUT8 (Homo sapiens, UniProt Q9NY64); test: 2-DOG transport in HEK293 cells over-expressing GLUT8; settings: pre-treated 5 minutes, 2-DOG uptake 4 min; cells lacking GLUT1; read-out: IC50 (inhibition of 2-DOG transport in HEK cells over-expressing GLUT isoforms) GLUT8
T1 construct: expressed in transfected cells; host or cells: HEK293 stably expressing GLUT1 shRNA
T1 sequence (Q9NY64 1-477): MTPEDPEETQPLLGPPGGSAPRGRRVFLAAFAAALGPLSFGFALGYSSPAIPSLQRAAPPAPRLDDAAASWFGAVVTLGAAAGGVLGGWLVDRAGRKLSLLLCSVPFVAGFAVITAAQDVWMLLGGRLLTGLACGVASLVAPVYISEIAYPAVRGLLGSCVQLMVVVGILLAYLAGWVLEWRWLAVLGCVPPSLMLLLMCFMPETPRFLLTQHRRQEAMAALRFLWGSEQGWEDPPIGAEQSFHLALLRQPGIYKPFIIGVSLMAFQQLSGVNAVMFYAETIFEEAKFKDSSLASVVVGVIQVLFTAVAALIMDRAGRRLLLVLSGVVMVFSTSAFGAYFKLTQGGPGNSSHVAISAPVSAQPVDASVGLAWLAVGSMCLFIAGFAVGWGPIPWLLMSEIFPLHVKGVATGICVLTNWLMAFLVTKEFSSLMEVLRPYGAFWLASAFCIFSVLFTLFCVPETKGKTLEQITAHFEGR
Procedure: (§1) Tissue culture plates were pretreated with 25 μg/ml polyethyleneimine (Fluka, catalogue number P3143) in 150 mM NaCl for 20min to let cells adhere. JNN3 cells were subsequently plated and grown to 40-60% confluency in complete RPMI 1640 medium. HEK293 GLUT overexpressing cells were plated at 400,000 cells/ml overnight. Cells were then washed with glucose-free HEPES buffer twice and starved for 30 min. The uptake of 2-[^3H] deoxy-D-glucose (2-DOG) (50 μM) was measured in glucose-free HEPES buffer for 4-6 min at 37° C. Compound 20 (20 μM) was added 5-6 min prior to the addition of glucose depending on the specific assay. For the HEK293 GLUT overexpressing cells, non-specific uptake was measured in non-transfected HEK293 cells containing the shRNA GLUT1 knockdown and was subtracted from the experimental values. Data are plotted as percent uptake relative to unexposed HEK293 cultures. Data were normalized to fit by nonlinear regression analysis using GraphPad Prism software.
(§2) Compound 20 was further screened for GLUT4 selectivity by evaluating inhibition of glucose transport in HEK 293 cells exogenously over-expressing human GLUTs-1, -2, -3, -4, or -8 that also stably express GLUT1 shRNA (except the GLUT1 overexpressing cell line) to knock down endogenous GLUT1.
(§3) Glucose transport in HEK293 cells over-expressing GLUT1 or over-expressing GLUT4 or GLUT8 in cells lacking GLUT1 were used to evaluate inhibition of glucose transport. Cells were pre-treated with compound for 5 minutes followed by evaluation of 22-DOG uptake for 4 min at 370 C. Non-specific uptake was measured in nontransfected HEK293 cells containing the shRNA GLUT1 knockdown and was subtracted from the experimental values.

GLUT4 = molecular target: T2, GLUT4 (Homo sapiens, UniProt P14672); test: 2-DOG transport in HEK293 cells over-expressing GLUT4; settings: pre-treated 5 minutes, 2-DOG uptake 4 min; cells lacking GLUT1; read-out: IC50 (inhibition of 2-DOG transport in HEK cells over-expressing GLUT isoforms) GLUT4
T2 construct: expressed in transfected cells; host or cells: HEK293 stably expressing GLUT1 shRNA
T2 sequence (P14672 1-509): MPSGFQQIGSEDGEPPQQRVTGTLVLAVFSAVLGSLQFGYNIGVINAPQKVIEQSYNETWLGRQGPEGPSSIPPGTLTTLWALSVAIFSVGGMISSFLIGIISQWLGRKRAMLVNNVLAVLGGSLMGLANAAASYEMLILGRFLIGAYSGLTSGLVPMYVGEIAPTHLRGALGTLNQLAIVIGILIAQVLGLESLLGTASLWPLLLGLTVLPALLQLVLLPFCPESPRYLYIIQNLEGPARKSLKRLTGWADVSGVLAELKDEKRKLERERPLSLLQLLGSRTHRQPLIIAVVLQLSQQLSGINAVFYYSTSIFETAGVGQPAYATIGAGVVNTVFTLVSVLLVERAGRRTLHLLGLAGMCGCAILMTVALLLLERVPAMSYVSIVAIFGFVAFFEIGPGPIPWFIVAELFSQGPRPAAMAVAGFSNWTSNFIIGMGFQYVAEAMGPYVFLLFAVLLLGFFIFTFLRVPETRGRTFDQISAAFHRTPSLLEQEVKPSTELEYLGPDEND
Procedure: as §1, §2, §3

GLUT1 = molecular target: T3, GLUT1 (Homo sapiens, UniProt P11166); test: 2-DOG transport in HEK293 cells over-expressing GLUT1; settings: pre-treated 5 minutes, 2-DOG uptake 4 min; read-out: IC50 (inhibition of 2-DOG transport in HEK cells over-expressing GLUT isoforms) GLUT1
T3 construct: expressed in transfected cells; host or cells: HEK293
T3 sequence (P11166 1-492): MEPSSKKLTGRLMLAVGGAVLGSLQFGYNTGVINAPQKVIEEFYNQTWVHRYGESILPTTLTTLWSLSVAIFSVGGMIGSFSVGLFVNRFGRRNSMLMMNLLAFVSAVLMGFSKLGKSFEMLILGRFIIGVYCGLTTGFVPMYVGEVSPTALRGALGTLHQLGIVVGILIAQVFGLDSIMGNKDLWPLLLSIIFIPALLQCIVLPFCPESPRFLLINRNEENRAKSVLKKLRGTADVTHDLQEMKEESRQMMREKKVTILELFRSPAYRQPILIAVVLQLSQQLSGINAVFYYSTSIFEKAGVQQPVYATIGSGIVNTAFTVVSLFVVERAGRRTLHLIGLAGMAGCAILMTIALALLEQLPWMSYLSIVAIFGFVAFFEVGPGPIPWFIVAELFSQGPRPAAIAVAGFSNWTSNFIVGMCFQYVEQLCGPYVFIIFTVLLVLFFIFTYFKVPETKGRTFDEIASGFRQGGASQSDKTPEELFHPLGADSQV
Procedure: as §1, with “software. […]” for “software.”
as §3, with “Cells were pre-treated with compound for 5 minutes followed by evaluation of 22-DOG uptake for 4 min at 370 C.” left out

KMS11-GFP cells = test: Proliferation of KMS11-GFP myeloma cells (Cell Titre Glo); settings: for pEC50: inhibition of proliferation, 72 hours, Cell Titre Glo; for impact on proliferation in KMS11-GFP cells compared with KMS11-GLUT1 cells: isogenic cell line pair
Procedure: (§4) IC50 studies were performed using the CellTiter-Glo assay (Promega, Madison, Wis.). 20,000 cells in 100 ul complete RPMI 1640 medium were plated per well in 96-well plates, with a concentration range of individual compounds. After 72 h incubation, 100 uL Glo reagent were added to each well and luminescence was measured using a Biotek Synergy 4 multimode plate reader. Cell number was assessed by trypan blue standing and an automatic cell counter (Biorad). For cell viability assays 0.125×10^6 cells/mL were treated with the indicated concentration of drug, washed with 1×PBS and evaluated for viability by AnnexinV/DAPI staining and flow cytometry. Data analysis was per-formed with the FCS express version 3 (De Novo software, Los Angeles).
(§5) Compound were selected as a lead based on its low IC50, selectivity for inhibition of glucose transport through GLUT4, and inhibition of the KMS11-GFP cell line proliferation in contrast to the GLUT1 expressing isogenic line. Compounds were assessed in a high-throughput proliferation-based assay using an isogenic MM (KMS11) cell line pair overexpressing GLUT1 or GFP (as a control) (model of screen is depicted in FIG. 2A). […] Isogenic KMS11-GFP/GLUT1 overexpressing myeloma cell lines were treated with a dose range of the indicated test compound for 72 hours followed by evaluation of viable cell number by Cell Titre Glo assay

KMS11-GLUT1 cells = test: Proliferation of KMS11-GLUT1 myeloma cells (Cell Titre Glo); settings: inhibition of proliferation, 72 hours
Procedure: as §4, §5

SMILES	pIC50 (GLUT8)	pIC50 (GLUT4)	pIC50 (GLUT1)	pEC50 (KMS11-GFP cells)	pEC50 (KMS11-GLUT1 cells)	impact on proliferation in KMS11-GFP cells compared with KMS11-GLUT1 cells (KMS11-GFP cells)
Oc1cccc(CNCc2ccncc2)c1 [Compound 3, reference compound]	< 4.00	4.72	< 4.00	–	–	–
COc1ccc(C(=O)N(Cc2ccncc2)Cc2cccc(OCCc3ccc(C)cc3)c2)cc1 [Compound 7, 4-Methoxy-N-(3-(4-methylphenethoxy)benzyl)-N-(pyridin-4-ylmethyl)benzamide]	–	–	–	5.04	4.90	–
COc1ccc(C(=O)N(Cc2ccncc2)Cc2cccc(OCCc3cccc(C(F)(F)F)c3)c2)cc1 [Compound 8, 4-Methoxy-N-(pyridin-4-ylmethyl)-N-(3-(3-(trifluoromethyl)phenethoxy)benzyl)benzamide]	–	–	–	5.05	4.82	greater impact on proliferation in KMS11-GFP cells
COc1ccc(C(=O)N(Cc2ccncc2)Cc2cccc(OCC3CCOCC3)c2)cc1 [Compound 9, 4-Methoxy-N-(pyridin-4-ylmethyl)-N-(3-((tetrahydro-2H-pyran-4-yl)methoxy)benzyl)benzamide]	–	–	–	4.75	4.59	greater impact on proliferation in KMS11-GFP cells
COc1ccc(C(=O)N(Cc2ccncc2)Cc2cccc(OCCc3ccccc3)c2)cc1 [Compound 10, 4-Methoxy-N-(3-phenethoxybenzyl)-N-(pyridin-4-ylmethyl)benzamide]	–	–	–	4.77	4.68	–
COc1ccc(C(=O)N(Cc2ccncc2)Cc2cccc(OCC3CCN(C(=O)OC(C)(C)C)CC3)c2)cc1 [Compound 11, Tert-butyl 4-((3-((4-methoxy-N-(pyridin-4-ylmethyl)benzamido)methyl)phenoxy)methyl)piperidine-1-carboxylate]	–	–	–	5.29	5.31	–
COc1ccc(C(=O)N(Cc2ccncc2)Cc2cccc(OCC3CCCCC3)c2)cc1 [Compound 12, N-(3-(cyclohexylmethoxy)benzyl)-4-methoxy-N-(pyridin-4-ylmethyl)benzamide]	–	–	–	4.71	4.80	–
COc1ccc(C(=O)N(Cc2ccncc2)Cc2cccc(OCCc3ccc(Br)cc3)c2)cc1 [Compound 13, N-(3-(4-bromophenethoxy)benzyl)-4-methoxy-N-(pyridin-4-ylmethyl)benzamide]	–	–	–	5.08	5.19	–
COc1ccc(C(=O)N(Cc2ccncc2)Cc2cccc(OCc3ccc([N+](=O)[O-])cc3)c2)cc1 [Compound 14, 4-Methoxy-N-(3-((4-nitrobenzyl)oxy)benzyl)-N-(pyridin-4-ylmethyl)benzamide]	–	–	–	4.81	4.93	–
COc1ccc(C(=O)N(Cc2ccncc2)Cc2cccc(OCc3ccc(C(F)(F)F)cc3)c2)cc1 [Compound 15]	–	–	–	4.84	4.77	–
COc1ccc(C(=O)N(Cc2ccncc2)Cc2cccc(OCc3ccc(F)cc3)c2)cc1 [Compound 16, N-(3-((4-fluorobenzyl)oxy)benzyl)-4-methoxy-N-(pyridin-4-ylmethyl)benzamide]	–	–	–	4.64	4.54	–
COc1ccc(C(=O)N(Cc2ccncc2)Cc2cccc(OCc3cccc(OC)c3)c2)cc1 [Compound 17, 4-Methoxy-N-(3-((3-methoxybenzyl)oxy)benzyl)-N-(pyridin-4-ylmethyl)benzamide]	< 4.00	4.97	< 4.00	4.77	4.55	greater impact on proliferation in KMS11-GFP cells
COc1ccc(C(=O)N(Cc2ccncc2)Cc2cccc(OCC(=O)c3ccc(Cl)cc3)c2)cc1 [Compound 18, N-(3-(2-(4-chlorophenyl)-2-oxoethoxy)benzyl)-4-methoxy-N-(pyridin-4-ylmethyl)benzamide]	–	–	–	4.73	4.77	–
O=C(c1ccc(Cl)cc1)N(Cc1ccncc1)Cc1cccc(OCCc2ccc(F)cc2)c1 [Compound 19, 4-Chloro-N-(3-(4-fluorophenethoxy)benzyl)-N-(pyridin-4-ylmethyl)benzamide]	–	–	–	4.88	4.81	–
COc1ccc(C(=O)N(Cc2ccncc2)Cc2cccc(OCC(=O)c3cccc(Br)c3)c2)cc1 [Compound 21, N-(3-(2-(3-bromophenyl)-2-oxoethoxy)benzyl)-4-methoxy-N-(pyridin-4-ylmethyl)benzamide]	–	–	–	4.73	4.67	–
COc1ccc(C(=O)N(Cc2ccncc2)Cc2cccc(OCc3cccc([N+](=O)[O-])c3)c2)cc1 [Compound 22, 4-Methoxy-N-(3-((3-nitrobenzyl)oxy)benzyl)-N-(pyridin-4-ylmethyl)benzamide]	–	–	–	4.71	4.69	–
